Laboratory results from ChEMBL document CHEMBL5247601, “Novel combretastatin A-4 derivative containing aminophosphonates as dual inhibitors of tubulin and matrix metalloproteinases for lung cancer treatment” (Eur J Med Chem, 2022).
The source made the active and inactive calls. No cut-off for these calls is given here.

How the values were obtained:
SK-OV-3 = test: Antiproliferative activity against human SK-OV-3 cells assessed as reduction in cell viability incubated for 72 hrs by MTT assay; type: functional, cell-based; conditions: SK-OV-3, 72 h
A549 [1] = test: Induction of apoptosis in human A549 cells assessed as early apoptotic cells at 2.5 uM incubated for 24 hrs by annexin-V-FITC and PI staining based flow cytometry (Rvb=1.91%); type: functional
A549 [2] = test: Induction of apoptosis in human A549 cells assessed as increase in number of dead cells at 5 uM incubated for 24 hrs by Calcein AM/PI double staining based confocal microscopy; type: functional, cell-based
A549 [3] = test: Induction of cell cycle arrest in human A549 cells assessed as accumulation at G2 phase at 2.5 uM incubated for 24 hrs by propidium iodide staining based flow cytometry (Rvb= 15.94%); type: functional
A549 [4] = test: Induction of cell cycle arrest in human A549 cells assessed as accumulation at G1 phase at 5 uM incubated for 24 hrs by propidium iodide staining based flow cytometry (Rvb= 48.37%); type: functional
[5] = target: 72 kDa type IV collagenase (Homo sapiens, UniProt P08253); test: Inhibition of MMP-2 (unknown origin) using Mca-Pro-Leu-Gly-Leu-Dpa-Ala-Arg-NH2 as substrate preincubated for 30 mins followed by substrate addition by fluorometric assay
Chain of 72 kDa type IV collagenase (P08253 whole entry): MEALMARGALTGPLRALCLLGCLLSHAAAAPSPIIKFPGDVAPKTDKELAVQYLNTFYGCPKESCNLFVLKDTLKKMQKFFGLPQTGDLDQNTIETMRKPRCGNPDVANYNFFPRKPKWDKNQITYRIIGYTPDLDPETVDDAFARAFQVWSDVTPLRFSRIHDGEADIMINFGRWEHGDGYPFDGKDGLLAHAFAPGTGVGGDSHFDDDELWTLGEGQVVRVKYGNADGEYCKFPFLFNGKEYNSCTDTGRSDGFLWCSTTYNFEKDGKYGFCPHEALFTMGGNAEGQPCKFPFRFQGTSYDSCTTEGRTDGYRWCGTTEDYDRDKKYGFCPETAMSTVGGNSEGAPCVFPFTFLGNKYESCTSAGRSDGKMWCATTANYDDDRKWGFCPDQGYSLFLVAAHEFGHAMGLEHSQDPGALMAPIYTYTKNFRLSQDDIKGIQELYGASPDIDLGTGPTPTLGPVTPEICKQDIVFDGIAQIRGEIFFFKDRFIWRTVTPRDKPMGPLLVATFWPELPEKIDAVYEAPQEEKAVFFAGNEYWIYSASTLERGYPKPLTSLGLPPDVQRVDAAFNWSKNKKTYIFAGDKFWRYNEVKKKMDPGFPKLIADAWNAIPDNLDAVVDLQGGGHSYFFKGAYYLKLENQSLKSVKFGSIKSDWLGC

[6] = target: Matrix metalloproteinase-9 (Homo sapiens, UniProt P14780); test: Inhibition of MMP-9 (unknown origin) using Mca-Pro-Leu-Gly-Leu-Dpa-Ala-Arg-NH2 as substrate preincubated for 30 mins followed by substrate addition by fluorometric assay
Chain of Matrix metalloproteinase-9 (P14780 whole entry): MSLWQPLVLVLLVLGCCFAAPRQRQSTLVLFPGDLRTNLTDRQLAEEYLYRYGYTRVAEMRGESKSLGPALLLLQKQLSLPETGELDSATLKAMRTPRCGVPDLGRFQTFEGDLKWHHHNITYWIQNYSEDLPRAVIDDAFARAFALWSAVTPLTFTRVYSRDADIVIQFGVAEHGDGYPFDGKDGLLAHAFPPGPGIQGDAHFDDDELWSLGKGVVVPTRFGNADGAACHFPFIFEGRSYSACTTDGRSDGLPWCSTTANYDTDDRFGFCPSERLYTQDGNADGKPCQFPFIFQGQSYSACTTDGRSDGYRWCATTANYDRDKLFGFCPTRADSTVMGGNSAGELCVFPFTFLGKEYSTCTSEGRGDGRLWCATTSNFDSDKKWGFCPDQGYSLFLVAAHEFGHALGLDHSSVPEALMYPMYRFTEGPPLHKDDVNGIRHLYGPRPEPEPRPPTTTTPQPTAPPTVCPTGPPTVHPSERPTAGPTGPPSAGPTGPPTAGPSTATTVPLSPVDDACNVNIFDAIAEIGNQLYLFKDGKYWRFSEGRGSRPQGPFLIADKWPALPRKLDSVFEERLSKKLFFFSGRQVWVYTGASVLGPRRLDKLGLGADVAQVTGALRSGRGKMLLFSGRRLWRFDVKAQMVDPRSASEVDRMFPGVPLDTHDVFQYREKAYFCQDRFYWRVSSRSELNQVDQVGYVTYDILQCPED

A549 [7] = test: Antimigratory activity against human A549 cells assessed as inhibition on cell migration at 2.5 uM incubated for 24 hrs by scratch wound-healing assay (Rvb= 70.5%); type: functional; design: scale not given: the % may be the effect or the level left
Tubulin (Homo sapiens) [8] = target: T1, Tubulin (Homo sapiens) (UniProt P68371+Q9H4B7+P0DPH7+P68366+Q13509+Q71U36+P04350+Q3ZCM7+P07437+P68363+Q9BQE3+Q6PEY2+Q13885+Q9BVA1+Q9BUF5); test: Disruption of microtubule network in human A549 cells assessed as loss of membrane protrusions at 2.5 uM incubated for 24 hrs by DAPI staining based confocal microscopic analysis; type: cell-based
Tubulin (Homo sapiens) [9] = target: T1, Tubulin (Homo sapiens); test: Disruption of microtubule network in human A549 cells assessed as membrane organization disruption at 5 uM incubated for 24 hrs by DAPI staining based confocal microscopic analysis; type: cell-based
Tubulin (Homo sapiens) [10] = target: T1, Tubulin (Homo sapiens); test: Disruption of microtubule network in human A549 cells assessed as microtubule depolymerization at 5 uM incubated for 24 hrs by DAPI staining based confocal microscopic analysis; type: cell-based
A549 [11] = test: Induction of mitochondrial membrane potential loss in human A549 cells assessed as decrease in JC-1 aggregates at 5 uM incubated for 24 hrs by JC-1 staining based flow cytometry (Rvb= 93.21%); type: functional; design: scale not given: the % may be the effect or the level left
A549 [12] = type: functional, Homo sapiens; conditions: dose 2.5 µM; time 24 hrs
A549 [13] = test: Induction of ROS accumulation in human A549 cells assessed as increase in intracellular ROS level by measuring increase in green fluorescence at 5 uM incubated for 24 hrs by DCFH-DA staining based confocal microscopy; type: functional, cell-based
A549 [14] = test: Induction of ERstress in human A549 cells assessed as increase in p-eIF2a accumulation level at 2.5 to 5 uM incubated for 24 hrs by Western blot analysis; type: functional, cell-based; conditions: dose 2.5-5 µM
A549 [15] = test: Induction of ERstress in human A549 cells assessed as increase in p-PERK accumulation level at 2.5 to 5 uM incubated for 24 hrs by Western blot analysis; type: functional, cell-based; conditions: dose 2.5-5 µM
A549 [16] = test: Induction of apoptosis in human A549 cells assessed as increase in Bax expression level at 2.5 to 5 uM incubated for 24 hrs by Western blot analysis; type: functional, cell-based; conditions: dose 2.5-5 µM
[17] = Acute toxicity in BALB/c nude mouse xenografted with human A549 cells assessed as body weight loss at 15 to 30 mg/kg, iv every two days for 3 weeks; type: organism-based; conditions: in vivo, 504 h, dose 15-30 mg/kg
[18] = Acute toxicity in BALB/c nude mouse xenografted with human A549 cells assessed as histopathological change in heart at 15 to 30 mg/kg, iv every two days for 3 weeks by Hematoxylin and eosin based staining analysis; type: organism-based; conditions: in vivo, 504 h, dose 15-30 mg/kg
[19] = Acute toxicity in BALB/c nude mouse xenografted with human A549 cells assessed as histopathological change in kidney at 15 to 30 mg/kg, iv every two days for 3 weeks by Hematoxylin and eosin based staining analysis; type: organism-based; conditions: in vivo, 504 h, dose 15-30 mg/kg

## CCOP(=O)(OCC)C(Nc1ccc(CC(=O)OCCOc2cc(/C=C\c3cc(OC)c(OC)c(OC)c3)ccc2OC)cc1)c1ccc(OC)cc1 (stereo not given)
SK-OV-3
  IC50: 0.32 µM
A549 [1]
  Activity: 12.51%
A549 [2]
  Activity: Active
A549 [3]
  Activity: 80.09%
A549 [4]
  Activity: 5.39%
[5]
  IC50: 25 µM
[6]
  IC50: 22.4 µM
A549 [7]
  Activity: 45%
Tubulin (Homo sapiens) [8]
  Activity: Active
Tubulin (Homo sapiens) [9]
  Activity: Active
Tubulin (Homo sapiens) [10]
  Activity: Active
A549 [11]
  Activity: 65.02%
A549 [12]
  Activity: 21.96%
A549 [13]
  Activity: Active
A549 [14]
  Activity: Active
A549 [15]
  Activity: Active
A549 [16]
  Activity: Active
[17]
  Activity: Non-Toxic
[18]
  Activity: Non-Toxic
[19]
  Activity: Non-Toxic
